The structures appear in SMILES notation. Values after ≈ are worked out from the molar mass of the structure shown. Values joined by “and” are separate entries in the source; they are usually repeats but may differ in a detail not shown here. Equal entries are not always repeated. *1 amine or outer side, *2 acyl side, *3 side chain or, on linkers, in order; H or OH if unused. Where a SMILES comes first, the peptide text is derived from it. [ ]: non-standard residue; d: D form. X1 = C#CCn1cc(C[C@H](N[*:1])C(=O)[*:2])c2ccccc21; NMeLeu(5-OH,4R) = CN[C@@H](C[C@@H](C)CO)C(=O)O; Phe(βR-OMe) = CO[C@H](c1ccccc1)[C@H](N)C(=O)O; Trp(1-Me) = Cn1cc(C[C@H](N)C(=O)O)c2ccccc21; NMeL = CN[C@@H](CC(C)C)C(=O)O; Pra = C#CC[C@H](N)C(=O)O

In this test the test system is Mtb (RpoB S450L) ATCC 35838. The class given is cell-based, Mycobacterium tuberculosis.
In general, MIC refers to the lowest concentration found to suppress growth. As for `C#CCn1cc(C[C@@H]2NC(=O)[C@H](C(C)C)NC(=O)[C@H](CC(C)C)N(C)C(=O)[C@H](C(C)C)NC(=O)[C@H]([C@H](OC)c3ccccc3)NC(=O)[C@H](C)NC(=O)[C@H](C[C@@H](C)CO)N(C)C2=O)c2ccccc21` [Compound 5] (cyclo(A[Phe(βR-OMe)]V[NMeL]V[X1][NMeLeu(5-OH,4R)])), the MIC was determined as 0.4 ± 0.0 µM (≈ 0.376 µg/mL).
`COC(c1ccccc1)C1NC(=O)C(C)NC(=O)C(CC(C)CO)N(C)C(=O)C(Cc2cn(Cc3cn(CCOCCOCCOCCOCCn4cc(Cn5cc(CC6NC(=O)C(C(C)C)NC(=O)C(CC(C)C)N(C)C(=O)C(C(C)C)NC(=O)C(C(OC)c7ccccc7)NC(=O)C(C)NC(=O)C(CC(C)CO)N(C)C6=O)c6ccccc65)nn4)nn3)c3ccccc23)NC(=O)C(C(C)C)NC(=O)C(CC(C)C)N(C)C(=O)C(C(C)C)NC1=O` (stereo not shown) [Compound 8] yielded a minimal inhibitory concentration (MIC) of 0.2 ± 0.0 µM (≈ 0.434 µg/mL).
The result for `C#CC[C@@H]1NC(=O)[C@H](CC(C)C)N(C)C(=O)[C@H](C(C)C)NC(=O)[C@H]([C@H](OC)c2ccccc2)NC(=O)[C@H](C)NC(=O)[C@H](C[C@@H](C)CO)N(C)C(=O)[C@H](Cc2cn(C)c3ccccc23)NC1=O` [Compound 10] (cyclo(A[Phe(βR-OMe)]V[NMeL][Pra][Trp(1-Me)][NMeLeu(5-OH,4R)])) reads 1.6 ± 0.0 µM (≈ 1.46 µg/mL); that for `COC(c1ccccc1)C1NC(=O)C(C)NC(=O)C(CC(C)CO)N(C)C(=O)C(Cc2cn(C)c3ccccc23)NC(=O)C(Cc2cn(CCCCCn3cc(CC4NC(=O)C(CC(C)C)N(C)C(=O)C(C(C)C)NC(=O)C(C(OC)c5ccccc5)NC(=O)C(C)NC(=O)C(CC(C)CO)N(C)C(=O)C(Cc5cn(C)c6ccccc56)NC4=O)nn3)nn2)NC(=O)C(CC(C)C)N(C)C(=O)C(C(C)C)NC1=O` (stereo not shown) [Compound 12], 0.2 ± 0.0 µM (≈ 0.396 µg/mL); that for `NNC(=O)c1ccncc1` [Isoniazid], 0.5 ± 0.0 µM and 0.45 µM.
To `COc1c(N2C[C@@H]3CCCN[C@@H]3C2)c(F)cc2c(=O)c(C(=O)O)cn(C3CC3)c12` [Moxifloxacin, reference compound] belongs 0.3 ± 0.0 µM and 0.31 µM.
The result for `CO[C@H]1/C=C/O[C@@]2(C)Oc3c(C)c(O)c4c(O)c(c(/C=N/N5CCN(C)CC5)c(O)c4c3C2=O)NC(=O)/C(C)=C\C=C\[C@H](C)[C@H](O)[C@@H](C)[C@@H](O)[C@@H](C)[C@H](OC(C)=O)[C@@H]1C` [Rifampicin, reference compound] reads >38.9 µM and >38.88 µM.

(Values after publication PMC10914731, “Homo-BacPROTAC-induced degradation of ClpC1 as a strategy against drug-resistant mycobacteria” (Nature Communications, 2024).)
